In ChEMBL document CHEMBL5247640 (J Med Chem, 2023):
Blank lines part the entries; values can stand above or below the compound they belong to.

Legend:
[1] = Metabolic stability in mouse liver microsomes assessed as intrinsic clearance; assay type: ADME, Microsome
[2] = Cmax in ICR mouse liver at 10 mg/kg, po measured after 24 hrs by LC-MS/MS analysis; assay type: ADME, organism-based; set-up: dose 10 mg/kg, time 24 hrs, route po
[3] = Hepatotoxicity in ICR mouse assessed as upregulation of Dio1 mRNA expression in liver by measuring fold change at 3 to 10 mg/kg, po administered as single dose by qRT-PCR analysis; assay type: toxicity, organism-based; conditions: in vivo, dose 3-10 mg/kg
[4] = Toxicity in ICR mouse assessed as decrease in serum total cholesterol level at 10 mg/kg, po administered as single dose measured after 24 hrs by automated biochemical analyzer; assay type: organism-based; set-up: scale not given: the % may be the effect or the level left; conditions: in vivo
[5] = Tmax in ICR mouse liver at 10 mg/kg, po measured after 24 hrs by LC-MS/MS analysis; assay type: ADME, organism-based
[6] = Cardiotoxicity in ICR mouse assessed as changes in Myh6/Myh7 ratio in heart at 3 to 10 mg/kg, po administered as single dose by qRT-PCR analysis; assay type: toxicity, organism-based; conditions: in vivo, dose 3-10 mg/kg
[7] = AUClast in ICR mouse liver at 10 mg/kg, po measured after 24 hrs by LC-MS/MS analysis; assay type: ADME, organism-based; conditions: in vivo
[8] = Tmax in ICR mouse at 30 mg/kg, po measured after 24 hrs by LC-MS/MS analysis; assay type: ADME, organism-based; conditions: in vivo
[9] = Metabolic stability in rat liver microsomes assessed as half life; assay type: ADME, Microsome
[10] = Hepatotoxicity in ICR mouse assessed as upregulation of THRSP mRNA expression in liver by measuring fold change at 3 to 10 mg/kg, po administered as single dose by qRT-PCR analysis; assay type: toxicity, organism-based; conditions: in vivo, dose 3-10 mg/kg
[11] = Toxicity in ICR mouse assessed as decrease in serum total LDL-cholesterol level at 3 mg/kg, po administered as single dose measured after 24 hrs by automated biochemical analyzer; assay type: organism-based; set-up: scale not given: the % may be the effect or the level left; conditions: in vivo
[12] = Metabolic stability in rat liver microsomes assessed as intrinsic clearance; assay type: ADME, Microsome
[13] = Cardiotoxicity in ICR mouse assessed as changes in Myh7 mRNA expression in heart at 3 to 10 mg/kg, po administered as single dose by qRT-PCR analysis; assay type: toxicity, organism-based; conditions: in vivo, dose 3-10 mg/kg
[14] = Cmax in ICR mouse at 30 mg/kg, po measured after 24 hrs by LC-MS/MS analysis; assay type: ADME, organism-based; set-up: time 24 hrs, dose 30 mg/kg, route po; conditions: in vivo
[15] = Toxicity in ICR mouse assessed as decrease in serum total LDL-cholesterol level at 10 mg/kg, po administered as single dose measured after 24 hrs by automated biochemical analyzer; assay type: organism-based; set-up: scale not given: the % may be the effect or the level left; conditions: in vivo
[16] = Metabolic stability in human liver microsomes assessed as intrinsic clearance; assay type: ADME, Microsome
[17] = Cmax in ICR mouse serum at 10 mg/kg, po measured after 24 hrs by LC-MS/MS analysis; assay type: ADME, organism-based; set-up: dose 10 mg/kg, time 24 hrs, route po
[18] = Metabolic stability in mouse liver microsomes assessed as half life; assay type: ADME, Microsome
[19] = Half life in ICR mouse serum at 10 mg/kg, po measured after 24 hrs by LC-MS/MS analysis; assay type: ADME, organism-based
[20] = Half life in ICR mouse at 30 mg/kg, po measured after 24 hrs by LC-MS/MS analysis; assay type: ADME, organism-based; conditions: in vivo
[21] = Tmax in ICR mouse serum at 10 mg/kg, po measured after 24 hrs by LC-MS/MS analysis; assay type: ADME, organism-based
[22] = Cardiotoxicity in ICR mouse assessed as changes in Myh6 mRNA expression in heart at 3 to 10 mg/kg, po administered as single dose by qRT-PCR analysis; assay type: toxicity, organism-based; conditions: in vivo, dose 3-10 mg/kg
[23] = Hepatotoxicity in ICR mouse assessed as upregulation of Me1 mRNA expression in liver by measuring fold change at 3 to 10 mg/kg, po administered as single dose by qRT-PCR analysis; assay type: toxicity, organism-based; conditions: in vivo, dose 3-10 mg/kg
[24] = AUClast in ICR mouse serum at 10 mg/kg, po measured after 24 hrs by LC-MS/MS analysis; assay type: ADME, organism-based; set-up: time 24 hrs, dose 10 mg/kg, route po
[25] = Toxicity in ICR mouse assessed as decrease in serum total cholesterol level at 3 mg/kg, po administered as single dose measured after 24 hrs by automated biochemical analyzer; assay type: organism-based; set-up: scale not given: the % may be the effect or the level left; conditions: in vivo
[26] = Metabolic stability in human liver microsomes assessed as half life; assay type: ADME, Microsome
[27] = Toxicity in ICR mouse assessed as decrease in serum total cholesterol level at 30 mg/kg, po administered as single dose measured after 24 hrs by automated biochemical analyzer; assay type: organism-based; set-up: scale not given: the % may be the effect or the level left; conditions: in vivo
[28] = AUClast in ICR mouse at 30 mg/kg, po measured after 24 hrs by LC-MS/MS analysis; assay type: ADME, organism-based; set-up: dose 30 mg/kg, time 24 hrs, route po; conditions: in vivo
[29] = Cardiotoxicity in ICR mouse assessed as upregulation of Myh6 mRNA expression in heart at 1 mg/kg, po administered as single dose by qRT-PCR analysis; assay type: toxicity, organism-based; conditions: in vivo
[30] = Toxicity in ICR mouse assessed as decrease in serum total cholesterol level at 1 mg/kg, po administered as single dose measured after 24 hrs by automated biochemical analyzer; assay type: organism-based; set-up: scale not given: the % may be the effect or the level left; conditions: in vivo
[31] = Toxicity in ICR mouse assessed as decrease in serum total LDL-cholesterol level at 1 mg/kg, po administered as single dose measured after 24 hrs by automated biochemical analyzer; assay type: organism-based; set-up: scale not given: the % may be the effect or the level left; conditions: in vivo

CLH [1]: 9 mL/min/g
Cmax [2]: 24300 ng/g
Tmax [5]: 4 h
AUClast [7]: 349501 ng·h/g
Tmax [8]: 6 h
half-life [9]: 4.08 h
CLH [12]: 8.6 mL/min/g
Cmax [14]: 12100 ng/mL
CLH [16]: 26.5 mL/min/g
Cmax [17]: 5710 ng/mL
half-life [18]: 3.88 h
half-life [19]: 9.1 h
half-life [20]: 16.7 h
Tmax [21]: 2.7 h
AUC(0-t) at 24 h [24]: 57.1 µg·h/mL
half-life [26]: 1.32 h
AUC(0-t) at 24 h [28]: 168 µg·h/mL
SMILES: CC(C)c1cc(Oc2c(Cl)cc(-n3nc(C#N)c(=O)[nH]c3=O)cc2Cl)n[nH]c1=O [RESMETIROM]
fold change (FC) [3]: 12
Activity [4]: 36.9%
Activity [6]: Non-Toxic
fold change (FC) [10]: 10
Activity [11]: 39.3%
Activity [13]: Non-Toxic
Activity [15]: 39.8%
Activity [22]: Non-Toxic
fold change (FC) [23]: 1.8
Activity [25]: 27.2%
Activity [27]: 20.4%

SMILES: N[C@@H](Cc1cc(I)c(Oc2ccc(O)c(I)c2)c(I)c1)C(=O)O [LIOTHYRONINE]
Activity [29]: Toxic
Activity [30]: 44%
Activity [31]: 61.9%
